Source: PubChem BioAssay (NCI)
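Following 48 hours of exposure in 96-well plates, responses at five concentrations were used to interpolate endpoints linearly. GI50 is the concentration that inhibits growth by half. TGI denotes the concentration required for complete inhibition of growth.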

How the values were obtained:
Test in all cases: NCI anticancer screen, dose series, 48 h
A549 NSCLC = tested on: A549 NSCLC
786-0 renal = tested on: 786-0 renal
DU-145 prostate = tested on: DU-145 prostate
HOP-62 NSCLC = tested on: HOP-62 NSCLC
SNB-75 CNS = tested on: SNB-75 CNS
PC-3 prostate = tested on: PC-3 prostate
EKVX NSCLC = tested on: EKVX NSCLC
KM12 colon = tested on: KM12 colon
SK-MEL-5 melanoma = tested on: SK-MEL-5 melanoma
T-47D breast = tested on: T-47D breast
K-562 leukemia = tested on: K-562 leukemia
MCF7 breast = tested on: MCF7 breast
BT-549 breast = tested on: BT-549 breast
MALME-3M melanoma = tested on: MALME-3M melanoma
SF-268 CNS = tested on: SF-268 CNS
HCT-15 colon = tested on: HCT-15 colon
SF-295 CNS = tested on: SF-295 CNS
SNB-19 CNS = tested on: SNB-19 CNS
SK-MEL-2 melanoma = tested on: SK-MEL-2 melanoma
SF-539 CNS = tested on: SF-539 CNS
U251 CNS = tested on: U251 CNS
MDA-MB-435 = tested on: MDA-MB-435
UO-31 renal = tested on: UO-31 renal
LOX IMVI melanoma = tested on: LOX IMVI melanoma
M14 melanoma = tested on: M14 melanoma
SR leukemia = tested on: SR leukemia
RPMI-8226 leukemia = tested on: RPMI-8226 leukemia
UACC-257 melanoma = tested on: UACC-257 melanoma
SK-OV-3 ovarian = tested on: SK-OV-3 ovarian
MOLT-4 leukemia = tested on: MOLT-4 leukemia
HOP-92 NSCLC = tested on: HOP-92 NSCLC
NCI/ADR-RES ovarian = tested on: NCI/ADR-RES ovarian
UACC-62 melanoma = tested on: UACC-62 melanoma
SK-MEL-28 melanoma = tested on: SK-MEL-28 melanoma
HCT-116 colon = tested on: HCT-116 colon
MDA-MB-231 breast = tested on: MDA-MB-231 breast
NCI-H226 lung = tested on: NCI-H226 lung
SN12C renal = tested on: SN12C renal
SW-620 colon = tested on: SW-620 colon
CCRF-CEM leukemia = tested on: CCRF-CEM leukemia
OVCAR-8 ovarian = tested on: OVCAR-8 ovarian
ACHN renal = tested on: ACHN renal
HL-60(TB) leukemia = tested on: HL-60(TB) leukemia
HCC-2998 colon = tested on: HCC-2998 colon
CAKI-1 renal = tested on: CAKI-1 renal
NCI-H23 lung = tested on: NCI-H23 lung
TK-10 renal = tested on: TK-10 renal
IGROV1 ovarian = tested on: IGROV1 ovarian
A498 renal = tested on: A498 renal
COLO 205 colon = tested on: COLO 205 colon
HT29 colon = tested on: HT29 colon
OVCAR-4 ovarian = tested on: OVCAR-4 ovarian
HS 578T breast = tested on: HS 578T breast
NCI-H522 lung = tested on: NCI-H522 lung
OVCAR-5 ovarian = tested on: OVCAR-5 ovarian

CCC1=Cc2cc(OC)ccc2OC12C=Cc1cc(OC)ccc1O2 (configuration not stated)
GI50 (A549 NSCLC): 809 nM
TGI (A549 NSCLC): > 100000 nM
GI50 (786-0 renal): 676 nM
TGI (786-0 renal): > 100000 nM
GI50 (DU-145 prostate): 481 nM
TGI (DU-145 prostate): > 100000 nM
GI50 (HOP-62 NSCLC): 594 nM
TGI (HOP-62 NSCLC): > 100000 nM
GI50 (SNB-75 CNS): 218 nM
TGI (SNB-75 CNS): 720 nM
GI50 (PC-3 prostate): 536 nM
TGI (PC-3 prostate): > 100000 nM
GI50 (EKVX NSCLC): 678 nM
TGI (EKVX NSCLC): > 100000 nM
GI50 (KM12 colon): 423 nM
TGI (KM12 colon): > 100000 nM
GI50 (SK-MEL-5 melanoma): 1420 nM
TGI (SK-MEL-5 melanoma): > 100000 nM
TGI (T-47D breast): > 100000 nM
GI50 (K-562 leukemia): 379 nM
TGI (K-562 leukemia): > 100000 nM
GI50 (MCF7 breast): 389 nM
TGI (MCF7 breast): > 100000 nM
GI50 (BT-549 breast): 499 nM
TGI (BT-549 breast): 3810 nM
GI50 (MALME-3M melanoma): 624 nM
TGI (MALME-3M melanoma): > 100000 nM
GI50 (SF-268 CNS): 1040 nM
TGI (SF-268 CNS): > 100000 nM
GI50 (HCT-15 colon): 450 nM
TGI (HCT-15 colon): > 100000 nM
GI50 (SF-295 CNS): 418 nM
TGI (SF-295 CNS): > 100000 nM
GI50 (SNB-19 CNS): 550 nM
TGI (SNB-19 CNS): > 100000 nM
GI50 (SK-MEL-2 melanoma): 303 nM
TGI (SK-MEL-2 melanoma): 896 nM
GI50 (SF-539 CNS): 328 nM
TGI (SF-539 CNS): 2150 nM
GI50 (U251 CNS): 517 nM
TGI (U251 CNS): > 100000 nM
GI50 (MDA-MB-435): 228 nM
TGI (MDA-MB-435): 503 nM
GI50 (UO-31 renal): 1150 nM
TGI (UO-31 renal): > 100000 nM
GI50 (LOX IMVI melanoma): 484 nM
TGI (LOX IMVI melanoma): > 100000 nM
GI50 (M14 melanoma): 366 nM
GI50 (SR leukemia): 327 nM
TGI (SR leukemia): > 100000 nM
GI50 (RPMI-8226 leukemia): 393 nM
TGI (RPMI-8226 leukemia): > 100000 nM
GI50 (UACC-257 melanoma): 977 nM
TGI (UACC-257 melanoma): > 100000 nM
GI50 (SK-OV-3 ovarian): 563 nM
TGI (SK-OV-3 ovarian): > 100000 nM
GI50 (MOLT-4 leukemia): 500 nM
TGI (MOLT-4 leukemia): > 100000 nM
GI50 (HOP-92 NSCLC): 964 nM
TGI (HOP-92 NSCLC): > 26700 nM
GI50 (NCI/ADR-RES ovarian): 421 nM
TGI (NCI/ADR-RES ovarian): > 100000 nM
GI50 (UACC-62 melanoma): 553 nM
TGI (UACC-62 melanoma): > 100000 nM
GI50 (SK-MEL-28 melanoma): > 100000 nM
TGI (SK-MEL-28 melanoma): > 100000 nM
GI50 (HCT-116 colon): 518 nM
TGI (HCT-116 colon): > 100000 nM
GI50 (MDA-MB-231 breast): 964 nM
TGI (MDA-MB-231 breast): > 100000 nM
GI50 (NCI-H226 lung): 1060 nM
TGI (NCI-H226 lung): > 100000 nM
GI50 (SN12C renal): 796 nM
TGI (SN12C renal): > 100000 nM
GI50 (SW-620 colon): 385 nM
TGI (SW-620 colon): > 100000 nM
GI50 (CCRF-CEM leukemia): 398 nM
TGI (CCRF-CEM leukemia): > 100000 nM
GI50 (OVCAR-8 ovarian): 596 nM
TGI (OVCAR-8 ovarian): > 100000 nM
GI50 (ACHN renal): 789 nM
TGI (ACHN renal): > 100000 nM
GI50 (HL-60(TB) leukemia): 331 nM
TGI (HL-60(TB) leukemia): > 100000 nM
GI50 (HCC-2998 colon): 1710 nM
TGI (HCC-2998 colon): > 100000 nM
GI50 (CAKI-1 renal): 504 nM
TGI (CAKI-1 renal): > 100000 nM
GI50 (NCI-H23 lung): 1070 nM
TGI (NCI-H23 lung): > 100000 nM
GI50 (TK-10 renal): > 100000 nM
TGI (TK-10 renal): > 100000 nM
GI50 (IGROV1 ovarian): 739 nM
TGI (IGROV1 ovarian): > 100000 nM
GI50 (A498 renal): 250 nM
TGI (A498 renal): 827 nM
GI50 (COLO 205 colon): 326 nM
TGI (COLO 205 colon): 898 nM
GI50 (HT29 colon): 347 nM
TGI (HT29 colon): 1270 nM
GI50 (OVCAR-4 ovarian): > 100000 nM
TGI (OVCAR-4 ovarian): > 100000 nM
GI50 (HS 578T breast): 298 nM
GI50 (NCI-H522 lung): 283 nM
TGI (NCI-H522 lung): 936 nM
GI50 (OVCAR-5 ovarian): 936 nM
TGI (OVCAR-5 ovarian): > 100000 nM
